This is an account of results in paper PMC9736855, “Discovery of 3-Amino-1H-pyrazole-Based Kinase Inhibitors to Illuminate the Understudied PCTAIRE Family” (International Journal of Molecular Sciences, 2022).

The ΔTm is the change in melting temperature against a reference sample. As a reminder, the EC50 is the concentration at which the effect is half-maximal.

For one assay, the target named is T1, CDK16 (Homo sapiens, UniProt Q00536).
T1 construct: purchased in-house DSF panel (SGC Frankfurt)
Description: DSF. It is filed as binding. The settings on record: 10 μM compound. An excerpt: (§1) To investigate the selectivity profile of the different series, a differential scanning fluorimetry (DSF) assay was used. This assay offers a rapid and sensitive screening method that determines the denaturation temperature of a protein in absence and presence of a compound. This assay format measures the fluorescence of a dye, which depends on the folding state of the protein. The difference between the melting temperature (ΔTm) in the absence and presence of the compound represents the binding strength to the protein.
(§2) Measurements were performed in duplicates.

For another assay, the target named is T2, CDK2 (Homo sapiens, UniProt P24941).
T2 construct: purchased in-house DSF panel (SGC Frankfurt)
Description: DSF. It is filed as binding. The conditions noted are these: 10 μM compound.
Excerpt: as §1, §2

In a further assay the target is T3, CDK16/Cyclin Y (Homo sapiens, UniProt Q00536).
T3 construct: Full-length kinases were obtained as plasmids cloned in frame with a terminal NanoLuc-fusion; CS1810C178 (CCNY); host or cells: HEK293T
Description: NanoBRET. It is filed as cell-based. The conditions noted are these: Figure 7, 11-point dose-response in duplicates; read-out: NanoBRET EC50 ± SEM against CDK16. As for the experimental part: Next, to specifically quantify the outcome of the cellular activity of the compounds, a NanoBRET cellular target engagement assay was performed. The determination of the cellular potency on CDK16 correlated well with the corresponding DSF assay data (Figure S2). […] As mentioned before, the exchange from a methyl ester to an iso-propyl or tert-butyl ester led to a higher stabilization of the kinase in the DSF assay, which correlated with an increase in cellular potency as determined in the NanoBRET assay. […] The number of potential off-targets was low with 1 and 2 kinases with ΔTm >5 °C (Figure 4), highlighting these inhibitors for more comprehensive selectivity studied within the CDK and particular the TAIRE subfamily.
The assay was performed as described previously. In brief: Full-length kinases were obtained as plasmids cloned in frame with a terminal NanoLuc-fusion (Promega, Madison, WI, USA), as specified in table (Table S6). Plasmids were transfected into HEK293T cells using FuGENE HD (Promega, E2312) and proteins were allowed to express for 20h. Serially diluted inhibitor and NanoBRET Kinase Tracer (Promega) at a concentration determined previously as the KD,app (Table S5) were pipetted into white 384-well plates (Greiner 781207) using an Echo acoustic dispenser (Labcyte, San Jose, CA, USA). The corresponding protein-transfected cells were added and reseeded at a density of 2.5 × 10^5 cells/mL after trypsinization and resuspending in Opti-MEM without phenol red (Life Technologies, Carlsbad, CA, USA). The system was allowed to equilibrate for 2 h at 37 °C/5% CO2 prior to BRET measurements. To measure BRET, NanoBRET NanoGlo Substrate + Extracellular NanoLuc Inhibitor (Promega, N2540) was added as per the manufacturer’s protocol, and filtered luminescence was measured on a PHERAstar plate reader (BMG Labtech, Ortenberg, Germany) equipped with a luminescence filter pair (450 nm BP filter (donor) and 610 nm LP filter (acceptor)). Competitive displacement data were then graphed using GraphPad Prism 9 software using a normalized 3-parameter curve fit with the following equation: Y = 100/(1 + 10^(X–LogEC50)).
(In general: In BRET a luciferase serves as donor, and the signal depends on an acceptor being close.)

For the next assay, the target named is GSK3B (Homo sapiens, UniProt P49841). Description: DSF. It is filed as binding. Also noted: purchased in-house DSF panel (SGC Frankfurt). The settings on record: 10 μM compound.
Excerpt: as §1, §2

T3 sequence (Q00536 whole entry, the tested form may be a part): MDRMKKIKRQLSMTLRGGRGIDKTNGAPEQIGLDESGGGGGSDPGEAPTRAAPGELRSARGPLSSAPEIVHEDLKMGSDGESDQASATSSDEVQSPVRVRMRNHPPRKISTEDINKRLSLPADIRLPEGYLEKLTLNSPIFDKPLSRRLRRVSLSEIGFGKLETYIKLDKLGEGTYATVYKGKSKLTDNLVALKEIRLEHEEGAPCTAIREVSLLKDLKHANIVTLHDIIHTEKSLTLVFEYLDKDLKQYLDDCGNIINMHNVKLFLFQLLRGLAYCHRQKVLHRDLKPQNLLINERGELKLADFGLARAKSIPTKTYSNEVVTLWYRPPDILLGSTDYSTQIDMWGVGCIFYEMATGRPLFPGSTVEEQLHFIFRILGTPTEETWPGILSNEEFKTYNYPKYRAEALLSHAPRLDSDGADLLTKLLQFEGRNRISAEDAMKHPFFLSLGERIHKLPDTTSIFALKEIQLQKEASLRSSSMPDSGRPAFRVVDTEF
T3 sequence (Q8ND76 2-341 partner limits assumed): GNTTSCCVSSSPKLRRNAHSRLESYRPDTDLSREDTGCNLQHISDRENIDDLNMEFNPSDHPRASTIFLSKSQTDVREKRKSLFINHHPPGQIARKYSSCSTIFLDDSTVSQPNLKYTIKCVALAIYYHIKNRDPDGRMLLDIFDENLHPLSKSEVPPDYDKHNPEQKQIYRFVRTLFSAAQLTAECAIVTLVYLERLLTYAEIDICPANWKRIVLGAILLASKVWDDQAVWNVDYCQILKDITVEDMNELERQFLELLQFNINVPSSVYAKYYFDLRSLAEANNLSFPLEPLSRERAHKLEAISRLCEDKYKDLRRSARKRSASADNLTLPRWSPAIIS
T1 sequence (Q00536 163-478): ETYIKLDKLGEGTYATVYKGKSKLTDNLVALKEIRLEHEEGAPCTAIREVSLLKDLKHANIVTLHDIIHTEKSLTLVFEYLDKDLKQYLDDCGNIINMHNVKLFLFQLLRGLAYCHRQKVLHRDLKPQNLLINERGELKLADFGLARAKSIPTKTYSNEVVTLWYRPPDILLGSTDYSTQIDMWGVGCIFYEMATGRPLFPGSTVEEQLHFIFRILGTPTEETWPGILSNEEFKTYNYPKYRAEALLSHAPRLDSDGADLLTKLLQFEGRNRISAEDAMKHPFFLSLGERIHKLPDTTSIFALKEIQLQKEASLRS
GSK3B, sequence (P49841 35-386): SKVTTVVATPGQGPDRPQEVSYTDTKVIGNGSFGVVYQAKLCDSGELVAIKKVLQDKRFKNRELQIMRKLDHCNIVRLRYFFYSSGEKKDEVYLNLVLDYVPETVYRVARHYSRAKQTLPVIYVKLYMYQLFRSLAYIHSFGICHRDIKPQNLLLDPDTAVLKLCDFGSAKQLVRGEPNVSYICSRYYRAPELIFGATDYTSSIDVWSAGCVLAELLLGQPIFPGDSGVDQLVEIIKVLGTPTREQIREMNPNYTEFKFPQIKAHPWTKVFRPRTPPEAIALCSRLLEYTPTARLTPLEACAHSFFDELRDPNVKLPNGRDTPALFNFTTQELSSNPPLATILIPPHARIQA

Regarding `CC(C)c1cc(Nc2ccnc(Nc3ccc(CCNC(=O)OC(C)(C)C)cc3)n2)[nH]n1` [39a, tert-butyl 4-((4-((3-isopropyl-1H-pyrazol-5-yl)amino)pyrimidin-2-yl)amino)phenethyl-carbamate], the ΔTm at 10 µM turned out to be 7.9 ± 0.4 °C on CDK16, 9.8 ± 1.3 °C on CDK2 and 7 ± 0.1 °C at GSK3B. Moreover, the EC50 at CDK16/Cyclin Y turned out to be 70 ± 4.9 nM.

For the compound `COC(=O)c1cc(Nc2ccnc(NCc3ccc(CNC(=O)OC(C)(C)C)cc3)n2)[nH]n1` [21g, methyl 5-((2-((4-(((tert-butoxycarbonyl)amino)methyl)benzyl)amino)pyrimidin-4-yl)amino)-1H-pyrazole-3-carboxylate], the ΔTm at 10 µM was determined as 5.3 ± 0.1 °C at CDK16, 3.3 ± 0.1 °C at CDK2 and 7.7 ± 0.1 °C on GSK3B. Besides, the EC50 on CDK16/Cyclin Y was found to be 879 ± 5.5 nM.

As for `Cc1cc(Nc2ccnc(Nc3ccc(CCNC(=O)OC(C)(C)C)cc3)n2)[nH]n1` [38a, tert-butyl 4-((4-((3-methyl-1H-pyrazol-5-yl)amino)pyrimidin-2-yl)amino)phenethyl-carbamate], the ΔTm at 10 µM was 5.7 ± 0.2 °C at CDK16, 10.7 ± 0.1 °C at CDK2 and 10.4 ± 0.1 °C at GSK3B. On CDK16/Cyclin Y, the EC50 is 388 ± 32 nM.

Take `COC(=O)c1cc(Nc2ccnc(NCCCCCNC(=O)OC(C)(C)C)n2)[nH]n1` [21c, methyl 5-((2-((5-((tert-butoxycarbonyl)amino)pentyl)amino)pyrimidin-4-yl)amino)-1H-pyrazole-3-carboxylate]: the thermal shift (ΔTm) at 10 µM amounted to 8.5 ± 0.2 °C on CDK16, 5.6 °C at CDK2 and 8.6 °C at GSK3B. For the same compound, at CDK16/Cyclin Y, the EC50 stood at 107 nM.

Take `CNC(=O)c1cc(Nc2ccnc(Nc3ccc(CCNC(=O)OC(C)(C)C)cc3)n2)[nH]n1` [41a, tert-butyl 4-((4-((3-(methylcarbamoyl)-1H-pyrazol-5-yl)amino)pyrimidin-2-yl)amino)-phenethylcarbamate]: the shift in melting temperature (ΔTm) at 10 µM came out at 0.9 °C on CDK16, 1.2 ± 0.2 °C at CDK2 and 2.9 °C on GSK3B. For the same compound, the concentration for a half-maximal effect (EC50) on CDK16/Cyclin Y was 4160 ± 274 nM.

Consider `CC(C)(C)OC(=O)NCCCCCNc1ncc(Cl)c(Nc2cc(C3CC3)n[nH]2)n1` [13c, tert-butyl (5-((5-chloro-4-((3-cyclopropyl-1H-pyrazol-5-yl)amino)pyrimidin-2-yl)amino)pentyl)carbamate], for which the ΔTm at 10 µM amounted to 3.2 °C on CDK16, 5.1 ± 0.3 °C at CDK2 and 5.9 ± 0.3 °C at GSK3B. Besides, the EC50 at CDK16/Cyclin Y turned out to be 914 ± 11 nM.

For `COC(=O)c1cc(Nc2nc(Nc3cccc(CCNC(=O)OC(C)(C)C)c3)nc3ccccc23)[nH]n1` [23b, methyl 5-((2-((3-(2-((tert-butoxycarbonyl)amino)ethyl)phenyl)amino)quinazolin-4-yl)amino)-1H-pyrazole-3-carboxylate], the ΔTm at 10 µM at CDK16 came out at 0.2 ± 0.2 °C; at CDK2, 0.6 °C; at GSK3B, 1.4 ± 0.3 °C. For the same compound, the 50% effective concentration (EC50) at CDK16/Cyclin Y turned out to be 6820 ± 280 nM.

In the case of `CC(C)(C)OC(=O)NCCCCCNc1nccc(Nc2cc(C(C)(C)C)n[nH]2)n1` [40b, tert-butyl (5-((4-((3-(tert-butyl)-1H-pyrazol-5-yl)amino)pyrimidin-2-yl)amino)pentyl)-carbamate], the values for the ΔTm at 10 µM on CDK16, on CDK2 and on GSK3B were 5.1 ± 0.1 °C, 4.3 ± 0.1 °C and 4.9 ± 0.1 °C, respectively. On CDK16/Cyclin Y, the EC50 is 504 ± 9.3 nM.

Take `COC(=O)c1cc(Nc2nc(Nc3ccc(CCNC(=O)OC(C)(C)C)cc3)nc3ccccc23)[nH]n1` [23a, methyl 5-((2-((4-(2-((tert-butoxycarbonyl)amino)ethyl)phenyl)amino)quinazolin-4-yl)amino)-1H-pyrazole-3-carboxylate]: the shift in melting temperature (ΔTm) at 10 µM at CDK16 is 3.4 ± 0.6 °C; on CDK2 it was -0.1 ± 0.1 °C; at GSK3B, 1 ± 0.1 °C. Further, the EC50 on CDK16/Cyclin Y is 9360 ± 1020 nM.

Take `COC(=O)c1cc(Nc2nc(Nc3ccc(CCNC(=O)OC(C)(C)C)cc3)ncc2Cl)[nH]n1` [22a, methyl 5-((2-((4-(2-((tert-butoxycarbonyl)amino)ethyl)phenyl)amino)-5-chloropyrimidin-4-yl)amino)-1H-pyrazole-3-carboxylate]: the ΔTm at 10 µM stood at 0.3 ± 0.1 °C at CDK16, 2 ± 0.3 °C on CDK2 and 3.3 ± 0.5 °C on GSK3B. Besides, the EC50 at CDK16/Cyclin Y was 1860 ± 276 nM.

With `CNC(=O)c1cc(Nc2ccnc(NCCCCCNC(=O)OC(C)(C)C)n2)[nH]n1` [41b, tert-butyl (5-((4-((3-(methylcarbamoyl)-1H-pyrazol-5-yl)amino)pyrimidin-2-yl)amino)-pentyl)carbamate], the ΔTm at 10 µM is 1.5 ± 0.1 °C on CDK16, 1.2 ± 0.2 °C on CDK2 and 1.3 ± 0.1 °C at GSK3B. Besides, the EC50 on CDK16/Cyclin Y stood at 2470 ± 248 nM.

Regarding `CC(C)(C)OC(=O)NCCOCCNc1nccc(Nc2cc(C3CC3)n[nH]2)n1` [11d, tert-butyl (2-(2-((4-((3-cyclopropyl-1H-pyrazol-5-yl)amino)pyrimidin-2-yl)amino)ethoxy)-ethyl)carbamate], the ΔTm at 10 µM at CDK16 was found to be 7.3 ± 0.1 °C; at CDK2, 6.3 ± 0.2 °C; at GSK3B, 5.9 ± 0.2 °C. For the same compound, the concentration giving a half-maximal response (EC50) at CDK16/Cyclin Y was 67 ± 1.3 nM.

With `CC(C)(C)OC(=O)NCCCCCNc1nccc(Nc2cc(C3CC3)[nH]n2)n1` [11c, tert-butyl (5-((4-((3-cyclopropyl-1H-pyrazol-5-yl)amino)pyrimidin-2-yl)amino)pentyl) carbamate], the shift in melting temperature (ΔTm) at 10 µM is 9.4 °C at CDK16, 10.4 ± 0.3 °C on CDK2 and 7.1 ± 0.2 °C on GSK3B. For the same compound, the 50% effective concentration (EC50) at CDK16/Cyclin Y worked out at 33 ± 0.1 nM.

As to `CC(C)(C)OC(=O)NCCc1ccc(Nc2nccc(Nc3cc(C4CC4)n[nH]3)n2)cc1` [11a, tert-butyl 4-((4-((3-cyclopropyl-1H-pyrazol-5-yl)amino)pyrimidin-2-yl)amino)phenethyl-carbamate], the shift in melting temperature (ΔTm) at 10 µM on CDK16 turned out to be 8.7 °C; on CDK2, 12.3 °C; on GSK3B, 8.2 ± 0.1 °C. Moreover, at CDK16/Cyclin Y, the 50% effective concentration (EC50) turned out to be 35 nM.

Take `Cc1cnc(Nc2ccc(CCNC(=O)OC(C)(C)C)cc2)nc1Nc1cc(C2CC2)n[nH]1` [12a, tert-butyl 4-((4-((3-cyclopropyl-1H-pyrazol-5-yl)amino)-5-methylpyrimidin-2-yl)amino)-phenethylcarbamate]: the ΔTm at 10 µM at CDK16 was 6.2 ± 0.1 °C; on CDK2, 8.7 ± 0.1 °C; at GSK3B, 5.7 ± 0.2 °C. For the same compound, the 50% effective concentration (EC50) on CDK16/Cyclin Y is 172 ± 20.9 nM.

As for `CC(C)(C)c1cc(Nc2ccnc(Nc3ccc(CC#N)cc3)n2)[nH]n1` [40c, 2-(4-((4-((3-(tert-butyl)-1H-pyrazol-5-yl)amino)pyrimidin-2-yl)amino)phenyl)acetonitrile], the thermal shift (ΔTm) at 10 µM at CDK16 is 5.7 ± 0.1 °C; on CDK2 it was 10.7 ± 0.1 °C; on GSK3B it was 10.4 °C. For the same compound, the EC50 at CDK16/Cyclin Y came to 351 ± 34.1 nM.

On to `CC(C)(C)OC(=O)NCc1ccc(CNc2nccc(Nc3cc(C4CC4)n[nH]3)n2)cc1` [11f, tert-butyl 4-(((4-((3-cyclopropyl-1H-pyrazol-5-yl)amino)pyrimidin-2-yl)amino)methyl)-benzylcarbamate], for which the values for the thermal shift (ΔTm) at 10 µM on CDK16, on CDK2 and at GSK3B were 7.6 ± 0.2 °C, 8.4 ± 0.1 °C and 6.3 ± 0.1 °C, respectively. Also, the concentration for a half-maximal effect (EC50) on CDK16/Cyclin Y was determined as 110 ± 9.7 nM.

For `CC(C)(C)OC(=O)NCCc1ccc(Nc2ncc(Cl)c(Nc3cc(C4CC4)n[nH]3)n2)cc1` [13a, tert-butyl 4-((5-chloro-4-((3-cyclopropyl-1H-pyrazol-5-yl)amino)pyrimidin-2-yl)amino)phenethylcarbamate], the thermal shift (ΔTm) at 10 µM at CDK16 turned out to be 3.2 °C; on CDK2, 5.9 °C; at GSK3B, 4.6 °C. Also, the concentration for a half-maximal effect (EC50) on CDK16/Cyclin Y is 354 ± 60.5 nM.

For `COC(=O)c1cc(Nc2nc(NCCCCCNC(=O)OC(C)(C)C)nc3ccccc23)[nH]n1` [23c, methyl 5-((2-((5-((tert-butoxycarbonyl)amino)pentyl)amino)quinazolin-4-yl)amino)-1H-pyrazole-3-carboxylate], the results for the ΔTm at 10 µM on CDK16, at CDK2 and on GSK3B were 3.4 ± 0.1 °C, 1.3 ± 0.5 °C and 4.2 °C, respectively. For the same compound, the EC50 on CDK16/Cyclin Y was 4600 ± 385 nM.
